Data on two compounds can be found in patent publication US12692491B2, “Nucleic acid complexes for screening barcoded compounds” (Children's Medical Center Corporation, priority 2015, dated 2026).

In experiment [1] the target is T1, streptavidin (Streptomyces avidinii, UniProt P22629).
T1 construct: purchased Rockland
Briefly: Biotin-streptavidin nanoswitch on-rate and off-rate experiments. The format is binding. As to the method:
This construct used biotinylated versions of two oligonucleotides (var 4 and var 8), which were used in 4× molar excess to the scaffold, while all other oligonucleotides were used in a 10× molar excess. […] The final DNA construct was then diluted 100× from its original concentration of ~16 nM (to 160 pM), and mixed in equal volumes with streptavidin (Rockland) at 6 nM nominal concentration to form the loops, yielding final nominal concentrations of ~80 pM and 3 nM, respectively.
The 25° C. experiment was performed at room temperature, the 4° C. experiment was performed in a cold room, and the 37° C. and 50° C. experiments were performed using a thermal cycler. […] Actual concentrations used to determine the on-rates were measured using spectrophotometry and a HABA assay to determine streptavidin activity.
Off-rate measurements were performed by forming looped construct as described above, and letting the solution sit for at least 24 hours to allow the system to reach equilibrium. […] The 4° C. condition was done in a refrigerator, the 25° C. sample was done in a water bath, and the 37° C. and 50° C. temperatures were done in a thermal cycler. To run all the samples on a single gel, the quenching times were determined relative to the predetermined gel running time.
We additionally used Eyring analysis to fit the temperature dependence of the kinetic rates: […]

For experiment [2], the target named is T1, streptavidin. The experiment in a line: Desthiobiotin-streptavidin nanoswitch off-rate experiments. The format is binding. Here is the method:
Desthiobiotin experiments were conducted in a similar manner as the biotin experiments with slight modifications. […] The off-rate of the desthiobiotin interaction is much faster than the typical 100 minute gel run time. Noting that once a loop opens in the gel, the reptation of the DNA prevents the loop from closing again, we ran samples for different amounts of time in the gel at 15 V/cm and 4° C. and quantified the fraction looped as a function of running time (Appendix A—Supplementary FIG. 5). In addition to allowing the determination of the desthiobiotin-streptavidin off rate, this gel also allowed us to determine the minimum amount of time required to achieve separation of the looped and unlooped bands in the gel. This enabled the use of the standard quenching technique for measuring desthiobiotin off-rates as described in the previous section; these gels were run at 15 V/cm for 10 minutes in pre-chilled electrophoresis buffer.

T1 sequence (P22629 25-183): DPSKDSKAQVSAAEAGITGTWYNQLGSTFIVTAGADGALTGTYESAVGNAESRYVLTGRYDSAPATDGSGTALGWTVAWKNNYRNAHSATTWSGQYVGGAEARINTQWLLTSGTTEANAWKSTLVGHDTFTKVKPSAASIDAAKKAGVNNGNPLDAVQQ

Consider `O=C(O)CCCC[C@@H]1SC[C@@H]2NC(=O)N[C@@H]21` [biotin], for which, at streptavidin [1] (150 mM salt, room temperature), the on-rate was 4.0±0.7×10^6 M^−1s^−1. Moreover, the “equilibrium enthalpy change ΔH” value on streptavidin [1] (calculated from on-rate and off-rate measurements) is 26.01 ± 0.05 kcal/mol. Moreover, the dissociation time at streptavidin [1] (physiological salt conditions and 25° C.) was 9.7 ± 0.4 days.

Consider `C[C@@H]1NC(=O)N[C@@H]1CCCCCC(=O)O` [desthiobiotin], for which the off-rate of streptavidin-desthiobiotin on streptavidin [2] (4° C.) came out at 35.3 ± 7.5 min; on streptavidin [2] (room temperature), 8.6 ± 1.2 min.
